Test results from patent US10022342B2, “Methods and compositions for treating multiple myeloma” (Ohio State Innovation Foundation, priority 2015, dated 2018).

Columns and labels:
MM.1S cell line = test: Tumor size in MM.1S subcutaneous xenograft mice; type: in vivo; conditions: 25 mg/kg, 2 injections, at sacrifice
Description: To investigate if AR-42 treatment could affect CD44 expression in vivo, a xenograft MM mouse model was created by injecting 1×10^7 viable cells of MM.1S cell line subcutaneously into the right flank of 12 NOD-SCID mice. […] One group of mice (n=4) received intra-peritoneal injections of 25 mg/kg AR-42, while the second group (n=4) was injected with vehicle control (8% DMSO in PBS; Ctrl). Injections were administered once a day (on Monday and Wednesday). Because the anti-tumor activity of AR-42 has been previously reported in preclinical mouse studies, mice were sacrificed 2 days after the second injection in order to avoid tumor size reduction. […] Tumors were excised and used for CD44 immunohistochemical (IHC) studies, while the serum was collected for ELISA assays. […] Thus, AR-42 down-regulates CD44 directly in vivo.
Animal experiments were performed according to OSU institutional guidelines. To generate MM xenograft model, 1×10^7 viable MM.1S cells were injected subcutaneously into the right flank of 12 […]. The tumor size was measured once a week using a caliper, and the volume was calculated in cubed millimeters (mm3), using the formula L×W2/2. […] Mice were treated with […] injection of AR-42 (25 mg/kg) or DMSO (8% in PBS) once a day on Monday and Wednesday.

CD44 promoter region = test: CD44 promoter luciferase reporter assay; type: cell-based, human; conditions: 0.2 μM, 24 hour; MM.1S, U266 and 293T
Description: (§1) To address the molecular mechanism(s) responsible for downregulation of CD44 gene, the potential role of one or more cis regulatory regions was considered. […] The CD44 3′UTR element was subcloned downstream from the SV40 promoter-driven luciferase gene and transiently transfected the resulting reporter plasmid into MM.1S cells. Incubation of these cells with 0.2 μM AR-42 for 24 hours decreased luciferase activity detecting the activity of the CD44 3′UTR element by 35% as compared to untreated cells (FIG. 5A).
Human CD44 promoter-luciferase reporter gene (CD44P pGL3) was obtained from Addgene (Plasmid 19122). The 3′UTR of CD44 was PCR amplified using following primers:
Hela and 293T cells were transfected with 500 ng of 3′UTR-pGL3-control plasmid and 50 ng of Renilla luciferase expression construct (pRL-TK; Promega), using Lipofectamine 2000 (Invitrogen). After 24 hrs cells were lysed and tested by Dual Luciferase Assay (Promega), according to the manufacturer's instructions. MM.1S cells were transfected with 1.8 μg of pGL3-based luciferase vector and 200 ng of pRL-TK, harvested 24 hrs later and assayed as above.

CD44 = CD44 expression in whole bone marrow of MM patients by flow cytometry; type: cell-based, human; conditions: 24 hrs; all 5 Len-refractory and 2 of the 3 newly diagnosed MM patients
Description: Since MM cell survival is strongly dependent on microenvironment, the effects of AR-42 in combination with Len on MM cell killing in the context of the bone marrow (BM) milieu was examined. Total BM samples obtained from 5 Len-refractory MM (patients 1, 2, 3, 4, and 7) and 3 newly diagnosed MM patients (patients 5, 6, and 8) were treated with AR-42 (0.2 μM) and Len (5 μM) as single agents, and in combination. […] The BM cells from the same patients were used to assess CD44 expression at 24 hrs after AR-42 treatment.
CD44 surface expression was analyzed by staining cells with CD44-FITC antibody (BD Biosciences) for 30 min. in the dark, at room temperature. Apoptosis was measured by Annexin V-FITC and Propidium Iodide (PI) (Clontech) staining for 15 min. in the dark, at room temperature and data immediately acquired on a Beckman Coulter FC500 (Beckman Coulter) machine. Analysis was conducted using the FlowJo Software vX.0.7 (Tree Star Inc.). For the multiparametric analysis, the bone marrow samples were stained with CD38-PE (347687; BD Bioscience), CD138-APC (347193; BD Bioscience), CD45-ECD (A07784; Beckman Coulter), CD44-FITC (BD Bioscience) and AnnexinV-FITC (Clontech) for 30 minutes, washed with PBS and immediately analyzed with Gallios cytometer (Beckman Coulter).
Mouse data were evaluated by ANOVA, and synergy between AR-42 and Len was tested by interaction contrast. […]

[1] = system: pri-miR-9-1, pri-miR-9-2, pri-miR-9-3; test: pri-miR-9 primary transcripts by qRT-PCR in MM.1S cells; type: cell-based, human; conditions: vs controls
Description: Because human miR-9-5p is encoded by three distinct genomic loci (i.e., primary (pri)-miR-9-1 on chromosome 1 (q22), pri-miR-9-2 on chromosome 5 (q14.3), and pri-miR-9-3 on chromosome 15 (q26.1)), the identity of the locus responsible for miR-9up-regulation in response to AR-42 was investigated.
Quantitative real time-PCR (qRT-PCR) was performed with the TaqMan method (Applied Biosystems), according to the manufacturer's instructions, and analyzed with the 7900HT Sequence Detection System (Applied Biosystems). The appropriate TaqMan probes for mRNA, miRNA, and pri-miRNA quantification were purchased from Applied Biosystems, and all reactions were performed in triplicate. The following probes were used: hsa-miR-9-5p (000583), hsa-mir-9-1 (Hs03303201_pri), hsa-miR-9-2 (Hs03303202_pri), hsa-mir-9-3 (Hs03293595_pri), CD44 (Hs01075861_ml), IGF2BP3 (Hs00559907_g1). Simultaneous quantification of ornithine decarboxylase antizyme 1 (OAZ1), or GAPDH mRNAs were used as a reference for mRNA data normalization, while small endogenous nucleolar RNA U44/U48, or U6 were used for miRNA normalization. The relative expression levels were calculated by the comparative cycle threshold (Ct) method (User Bulletin #2; Applied Biosystems). Expression analyses of pre-miRNA was performed with SYBR green PCR master mix (Applied Biosystems) and normalized for U6 RNA. […]

CD44 3′UTR element = test: CD44 3'UTR luciferase reporter assay in MM.1S cells; type: cell-based, human; conditions: 0.2 μM, 24 hours, vs untreated cells
Description: as §1
(Forward) 5′-gctagc[…]-3′ (SEQ ID NO: 1) and 5′- gctagc[…]-3′ (SEQ ID NO: 2) (engineered Nhel sites are in lower case), and the products were cloned into Xbal site downstream from the luciferase gene in pGL3-control vector (Promega). To generate IGF2BP3 luciferase reporter constructs, the 3′UTR was amplified by PCR using primers: (Forward) 5′-[…]-3′ (SEQ ID NO: 3) and (Reverse) 5′-[…]-3′ (SEQ ID NO: […]), and cloned into Xbal site of pGL3-control vector (Promega). Mutations in the miR-9-5p binding site of the IGF2BP3 3′UTR were introduced by the QuikChange Mutagenesis Kit (Stratagene) and the following primers:
Hela and 293T cells were transfected with 500 ng of 3′UTR-pGL3-control plasmid and 50 ng of Renilla luciferase expression construct (pRL-TK; Promega), using Lipofectamine 2000 (Invitrogen). […]

SMILES: CC(C)[C@H](C(=O)Nc1ccc(C(=O)NO)cc1)c1ccccc1 [AR-42, (S)-N-hydroxy-4-(3-methyl-2-phenylbutanamido)benzamide]
- tumor size vs vehicle group (MM.1S cell line): still comparable
- activity of CD44 promoter region (luciferase) (CD44 promoter region): did not lower
- CD44 expression in whole BM (CD44): Downregulation
- primary transcripts of miR-9-5p [1]: dose dependent changes
- decrease of luciferase activity of the CD44 3′UTR element (CD44 3′UTR element): 35%
